Structures can show the parent of a compound that is named as a salt.
Assay: Acute toxicity test (LD50) in mice
Settings: mouse, in vivo
Experimental: 4-(3-tert.-Butylamino-2-hydroxypropoxy)-2-methyl-1-isoquinolinone hydrochloride and 4-(3-tert.-butylamino-2-hydroxypropoxy)-1-isoquinolinonehydrochloride, respectively were administered to mice to determine the LD50 value.

Row | Structure (SMILES) | LD50 (ip, intraperitoneal, female) [mg/kg] | LD50 (ip, intraperitoneal, male) [mg/kg] | LD50 (po, female) [mg/kg] | LD50 (po, male) [mg/kg]
1 | Cl.Cn1cc(OCC(O)CNC(C)(C)C)c2ccccc2c1=O (centres unmarked) [4-(3-tert.-butylamino-2-hydroxypropoxy)-2-methyl-1-isoquinolinone hydrochloride] | 557 | 578 | 1290 | 1390
2 | CC(C)(C)NCC(O)COc1c[nH]c(=O)c2ccccc12 (centres unmarked) [4-(3-tert.-butylamino-2-hydroxypropoxy)-1-isoquinolinonehydrochloride] | 367 | 382 | 2470 | 2810

Reference: patent publication US5061714A, “Isoquinoline composition for the treatment of glaucoma or ocular hypertension” (priority 1989, dated 1991)
